Assay results published in PubChem BioAssay (NCI).
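In this assay, cells in 96-well plates receive the compound at five concentrations for 48 hours. Endpoints are linearly interpolated between the surrounding concentrations. TGI is the concentration that stops growth completely.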

What was measured:
Test in all cases: NCI anticancer screen, dose series, 48 h
U251 CNS = test system: U251 CNS
MOLT-4 leukemia = test system: MOLT-4 leukemia
TK-10 renal = test system: TK-10 renal
SK-MEL-28 melanoma = test system: SK-MEL-28 melanoma
SK-MEL-2 melanoma = test system: SK-MEL-2 melanoma
LOX IMVI melanoma = test system: LOX IMVI melanoma
786-0 renal = test system: 786-0 renal
NCI-H23 lung = test system: NCI-H23 lung
SNB-78 CNS = test system: SNB-78 CNS
ACHN renal = test system: ACHN renal
OVCAR-5 ovarian = test system: OVCAR-5 ovarian
A549 NSCLC = test system: A549 NSCLC
EKVX NSCLC = test system: EKVX NSCLC
OVCAR-3 ovarian = test system: OVCAR-3 ovarian
SF-295 CNS = test system: SF-295 CNS
RPMI-8226 leukemia = test system: RPMI-8226 leukemia
LXFL 529 NSCLC = test system: LXFL 529 NSCLC
KM12 colon = test system: KM12 colon
M14 melanoma = test system: M14 melanoma
K-562 leukemia = test system: K-562 leukemia
RXF 393 renal = test system: RXF 393 renal
MALME-3M melanoma = test system: MALME-3M melanoma
HCC-2998 colon = test system: HCC-2998 colon
A498 renal = test system: A498 renal
HOP-62 NSCLC = test system: HOP-62 NSCLC
SK-MEL-5 melanoma = test system: SK-MEL-5 melanoma
COLO 205 colon = test system: COLO 205 colon
IGROV1 ovarian = test system: IGROV1 ovarian
HCT-116 colon = test system: HCT-116 colon
SF-539 CNS = test system: SF-539 CNS
HT29 colon = test system: HT29 colon
DLD-1 colon = test system: DLD-1 colon
SK-OV-3 ovarian = test system: SK-OV-3 ovarian
KM20L2 colon = test system: KM20L2 colon
NCI-H226 lung = test system: NCI-H226 lung
NCI-H460 lung = test system: NCI-H460 lung
UACC-62 melanoma = test system: UACC-62 melanoma
CAKI-1 renal = test system: CAKI-1 renal
DMS 114 small cell lung = test system: DMS 114 small cell lung
SF-268 CNS = test system: SF-268 CNS
OVCAR-8 ovarian = test system: OVCAR-8 ovarian
NCI-H522 lung = test system: NCI-H522 lung
SW-620 colon = test system: SW-620 colon
M19-MEL melanoma = test system: M19-MEL melanoma
UO-31 renal = test system: UO-31 renal
UACC-257 melanoma = test system: UACC-257 melanoma
SN12C renal = test system: SN12C renal
SNB-75 CNS = test system: SNB-75 CNS
DMS 273 small cell lung = test system: DMS 273 small cell lung
CCRF-CEM leukemia = test system: CCRF-CEM leukemia
SNB-19 CNS = test system: SNB-19 CNS
HL-60(TB) leukemia = test system: HL-60(TB) leukemia
SR leukemia = test system: SR leukemia
HOP-92 NSCLC = test system: HOP-92 NSCLC
HCT-15 colon = test system: HCT-15 colon
HOP-18 NSCLC = test system: HOP-18 NSCLC
OVCAR-4 ovarian = test system: OVCAR-4 ovarian

Measured: TGI

CC1=CP(=O)(OC(C)C)CC(C)=C1Cl (stereo not drawn)
> 100 µM: U251 CNS | MOLT-4 leukemia | TK-10 renal | SK-MEL-28 melanoma | SK-MEL-2 melanoma | LOX IMVI melanoma | 786-0 renal | NCI-H23 lung | SNB-78 CNS | ACHN renal | OVCAR-5 ovarian | A549 NSCLC | EKVX NSCLC | OVCAR-3 ovarian | SF-295 CNS | RPMI-8226 leukemia | LXFL 529 NSCLC | KM12 colon | M14 melanoma | K-562 leukemia | RXF 393 renal | MALME-3M melanoma | HCC-2998 colon | A498 renal | HOP-62 NSCLC | SK-MEL-5 melanoma | COLO 205 colon | IGROV1 ovarian | HCT-116 colon | SF-539 CNS | HT29 colon | DLD-1 colon | SK-OV-3 ovarian | KM20L2 colon | NCI-H226 lung | NCI-H460 lung | UACC-62 melanoma | CAKI-1 renal | DMS 114 small cell lung | SF-268 CNS | OVCAR-8 ovarian | NCI-H522 lung | SW-620 colon | M19-MEL melanoma | UO-31 renal | UACC-257 melanoma | SN12C renal | SNB-75 CNS | DMS 273 small cell lung | CCRF-CEM leukemia | SNB-19 CNS | HL-60(TB) leukemia | SR leukemia | HOP-92 NSCLC

CCc1cccc(CC)c1NC(=O)C(=O)Cc1nc2ccccc2o1
> 100 µM: U251 CNS | HCT-15 colon | MOLT-4 leukemia | TK-10 renal | SK-MEL-28 melanoma | SK-MEL-2 melanoma | LOX IMVI melanoma | 786-0 renal | HOP-18 NSCLC | NCI-H23 lung | SNB-78 CNS | ACHN renal | OVCAR-5 ovarian | A549 NSCLC | EKVX NSCLC | OVCAR-3 ovarian | SF-295 CNS | RPMI-8226 leukemia | LXFL 529 NSCLC | KM12 colon | M14 melanoma | K-562 leukemia | RXF 393 renal | MALME-3M melanoma | HCC-2998 colon | A498 renal | HOP-62 NSCLC | COLO 205 colon | IGROV1 ovarian | HCT-116 colon | SF-539 CNS | HT29 colon | DLD-1 colon | SK-OV-3 ovarian | KM20L2 colon | NCI-H226 lung | NCI-H460 lung | UACC-62 melanoma | CAKI-1 renal | DMS 114 small cell lung | SF-268 CNS | OVCAR-8 ovarian | NCI-H522 lung | SW-620 colon | M19-MEL melanoma | UO-31 renal | UACC-257 melanoma | SN12C renal | CCRF-CEM leukemia | SNB-19 CNS | HL-60(TB) leukemia | SR leukemia | HOP-92 NSCLC | OVCAR-4 ovarian
